Like-named read-outs stand apart in the source and are kept apart here.
What was measured:
BVDV (NADL strain) [1] = format: cell-based, Bovine viral diarrhea virus
MDBK cells = test: Cytotoxicity (MTT) in MDBK cells; format: cell-based
Experimental: (§1) Compound toxicity assay. Compound cytotoxicity was assessed by using an MTT based toxicity assay kit (Sigma, St. Louis, Mo.) as described elsewhere. Briefly, cells cultured under conditions identical to those used in the viral assay were incubated with various concentrations of the compound for 72 hours. MTT was added to the media to a final concentration of 0.5 mg/ml and was incubated for 3 hours at 37 C. After the culture media was removed, formazan crystals was dissolved by adding 150 ul of solubilization solution (10% Triton X-100, 0.1N HCl in anhydrous isopropanol) for 15-30 minutes. The absorbance of the dissolved formazan was measured spectrophotometrically at 570 nm with absorbance at 690 nm as background.

[2] = tested on: Junin virus (JUNV, Romero strain); format: cell-based
[3] = tested on: Dengue virus (DV) serotype 2, New Guinea C; test: microbe, parasite or virus in culture; format: cell-based
[4] = Cytotoxicity (CC50) in the HCV infection test; format: cell-based; conditions: Table 3, HCV infection test
[5] = in vivo, po, 100 mg/kg
HCV = HCV infection, intracellular HCV RNA level by real-time RT-PCR; format: cell-based, hepatitis C virus; conditions: for EC50: read-out: EC50 against HCV infection; for EC90: read-out: EC90 against HCV infection
Description: Another embodiment of the present invention is the use of imino sugar glucosidase inhibitors in the treatment of HCV. Imino sugar glucosidase inhibitors show equal or better efficacy than celgosivir.

Ebola (Zaire strain) = format: cell-based, Ebola virus
BHK cells = test: Cytotoxicity (MTT) in BHK cells; format: cell-based
Experimental: as §1

[6] = tested on: Tacaribe virus (21573 strain); format: cell-based
[7] = tested on: West Nile virus (2002 Texas isolate); test: microbe, parasite or virus in culture; format: cell-based
[8] = Cytotoxicity (MTT) in BHK cells; format: cell-based; conditions: hamster; BHK cells (for Dengue and West Nile virus), 3 days treatment
Experimental: as §1

BVDV (NADL strain) [9] = conditions: tissue culture, test viruses such as BVDV and DV; cited from earlier work
[10] = BHK cells (for Dengue and West Nile virus), 3 days treatment, read-out: CC50
[11] = Table 5, read-out: CC50 in BHK cells

Structure (SMILES)	EC50 (BVDV (NADL strain) [1]) [µM]	EC90 (BVDV (NADL strain) [1]) [µM]	CC50 (MDBK cells) [µM]	EC50 [2] [µM]	EC90 [2] [µM]	EC50 ([3]; read-out: DV EC50) [µM]	EC90 ([3]; read-out: DV EC90) [µM]	EC50 ([3]; read-out: Dengue EC50) [µM]	EC90 ([3]; read-out: Dengue EC90) [µM]	CC50 [4] [µM]	CC50 (vero cells) [µM]	EC50 (HCV) [µM]	EC90 (HCV) [µM]	EC50 (Ebola (Zaire strain)) [µM]	EC90 (Ebola (Zaire strain)) [µM]	CC50 (BHK cells; [10]) [µM]	CC50 (BHK cells; [11]) [µM]	EC50 [6] [µM]	EC90 [6] [µM]	EC50 ([7]; read-out: West Nile EC50) [µM]	other results
CC(=O)O.OC[C@@H]1[C@@H](O)[C@H](O)[C@@H](O)CN1CCCCCCC1(O)CCCCC1 [CM-9-70]	18	82.5	> 500																		anti-BVDV activity (BVDV (NADL strain) [1]): retains similar antiviral activity
CC(=O)O.CC1CCC(OCCCCCCN2C[C@H](O)[C@@H](O)[C@H](O)[C@H]2CO)CC1 (stereo partly shown) [CM-9-78]	8.1 ± 3.4	59 ± 22	> 500	2	> 100	6.75	13	6.8	13	> 500	> 500	5	160	7.5	> 100	> 100	> 40	10	> 100		plasma concentration [5]: above 30 μM
O[C@H]1[C@H](O)[C@@H](O)CN2CC[C@H](O)[C@H]12 [Castano., Castanospermin]										> 500		295	> 500								
CCCC(=O)O[C@H]1CN2CC[C@H](O)[C@@H]2[C@@H](O)[C@@H]1O [Celgosivir, celgosivir]										> 500											EC50 (HCV; Hepatitis C virus): 3.8 µM; EC90 (HCV; Hepatitis C virus): 100 µM
OC[C@H]1NC[C@H](O)[C@@H](O)[C@@H]1O [DNJ, deoxynojirimycin, reference compound]																					EC50 ([3]; Dengue virus, BHK, read-out: Dengue EC50): 500 µM; EC50 ([7]; West Nile virus, BHK, read-out: West Nile EC50): > 500 µM; CC50 at 72 h [8]: 20 to 100 µM
CCCCN1C[C@H](O)[C@@H](O)[C@H](O)[C@H]1CO [NBDNJ, N-butyl-DNJ, reference compound]																20 to 100				> 100	
CCCCCCCCCN1C[C@H](O)[C@@H](O)[C@H](O)[C@H]1CO [NNDNJ, N-nonyl-DNJ, reference compound]	7.3 ± 0.4	71 ± 7.1	245 ± 134	0.7	> 100			1 to 4	3 to 10	280	100	2.5	> 500	12	85	20 to 100		3	70	4	potency compared with DNJ or short alkyl side chain DNJ derivatives such as NBDNJ (BVDV (NADL strain) [9]): 100 times
OC[C@@H]1[C@@H](O)[C@H](O)[C@@H](O)CN1CCCCCC1(O)CCCCC1 [OSL95-II, N-pentyl-(1-hydroxycyclohexyl)-DNJ, reference compound]	10.9 ± 2.7	> 100	> 500	0.75	68	4	8.7	4	8.7	> 500	> 500	6	125	0.6	8	> 100	> 100	29	> 100	4.5	EC50 ([7]; read-out: WNV EC50): 4.5 µM
CC(C)[C@@H]1CC[C@@H](C)C[C@H]1OCCCCCCN1C[C@H](O)[C@@H](O)[C@H](O)[C@H]1CO [PBDNJ0801]	1.6 ± 1.2	14.8 ± 3.9	235 ± 21			0.1	0.2	0.1	0.2							80	70			4.75	EC50 ([7]; read-out: WNV EC50): 4.75 µM; EC90 ([7]; read-out: WNV EC90): 19 µM; EC90 ([7]; read-out: West Nile EC90): 19 µM
Cc1ccc(C)c(OCCCCCCN2C[C@H](O)[C@@H](O)[C@H](O)[C@H]2CO)c1 [PBDNJ0803]	3.7 ± 3.8	29.2 ± 29	485 ± 21	0.5	2	0.1	0.6	0.1	0.6		300					85	75	2	75	1.5	antiviral activity against Junin virus infection [2]: most potent; EC50 ([7]; read-out: WNV EC50): 1.5 µM; EC90 ([7]; read-out: WNV EC90): 20 µM; EC90 ([7]; read-out: West Nile EC90): 20 µM
C[C@@H]1CCCCC1OCCCCCCN1C[C@H](O)[C@@H](O)[C@H](O)[C@H]1CO (stereo partly shown) [PBDNJ0804]	3 ± 1.4	13 ± 1.7	> 500	0.45	0.9	0.075	0.6	0.08	0.6		500			0.5	5	65	70	1.5	50	3.5	antiviral activity against Junin virus infection [2]: most potent; EC50 ([7]; read-out: WNV EC50): 3.5 µM; EC90 ([7]; read-out: WNV EC90): 33 µM; EC90 ([7]; read-out: West Nile EC90): 33 µM
